Where two headings read alike, the source gives them in different places.
Tested on: wild‐type BCG cells
Assay type: cell-based, M. bovis BCG

O=C(Oc1ccc(Cl)cc1)c1ccc(N2CCOCC2)c([N+](=O)[O-])c1 [GDI‐5755]
0.6: Mean_Ratio GDI5755_3d: DMSO_3d (Table S5, BCG_0692c Methoxy mycolic acid synthase 3 mmaA3) | Mean_Ratio GDI5755_3d: DMSO_3d (Table S5, BCG_1896 Alanine and proline-rich secreted protein Apa) | Mean_Ratio GDI5755_3d: DMSO_3d (Table S5, BCG_1962 Probable lipase lipD) | Mean_Ratio GDI5755_3d: DMSO_3d (Table S5, BCG_2886c Possible penicillin-binding lipoprotein) | Mean_Ratio GDI5755_3d: DMSO_3d (Table S5, BCG_3009c 3-isopropylmalate dehydratase large subunit)
> 1.4 fold: EthA upregulation (GDI‐5755‐treated cells)
29.1%: proteome remaining downregulated into the third day (Day 2 and Day 3)
1.3: Mean_Ratio GDI5755_3d: DMSO_3d (Table S6, BCG_0347c Acetoacetate decarboxylase) | Mean_Ratio GDI5755_3d: DMSO_3d (Table S6, BCG_0909 Cyclase) | Mean_Ratio GDI5755_3d: DMSO_3d (Table S6, BCG_0993 Bifunctional 2-hydroxyhepta-2,4-diene-1,7-dioate isomerase)
1.56 fold: ClpB upregulation (2‐day treated cells)
0.8: Mean_Ratio GDI5755_3d: DMSO_3d (Table S5, BCG_0001 Chromosomal replication initiator protein DnaA) | Mean_Ratio GDI5755_3d: DMSO_3d (Table S5, BCG_0101c Serine hydroxy methyltransferase) | Mean_Ratio GDI5755_3d: DMSO_3d (Table S5, BCG_0208 MCE-family protein mce1C) | Mean_Ratio GDI5755_3d: DMSO_3d (Table S5, BCG_0547c UPF0336 protein) | Mean_Ratio GDI5755_3d: DMSO_3d (Table S5, BCG_0591c Possible oxidoreductase) | Mean_Ratio GDI5755_3d: DMSO_3d (Table S5, BCG_1311c Uncharacterized protein) | Mean_Ratio GDI5755_3d: DMSO_3d (Table S5, BCG_1534 Macrolide-transport ATP-binding protein ABC transporter) | Mean_Ratio GDI5755_3d: DMSO_3d (Table S5, BCG_1699 Possible chalcone synthase pks10) | Mean_Ratio GDI5755_3d: DMSO_3d (Table S5, BCG_2254 ER-bound oxygenase mpaB) | Mean_Ratio GDI5755_3d: DMSO_3d (Table S5, BCG_2310 Probable aminotransferase) | Mean_Ratio GDI5755_3d: DMSO_3d (Table S5, BCG_2546c Putative peptidoglycan hydrolase) | Mean_Ratio GDI5755_3d: DMSO_3d (Table S5, BCG_3111 alcohol dehydrogenase adhD) | Mean_Ratio GDI5755_3d: DMSO_3d (Table S5, BCG_3296 LytR family transcriptional regulator) | Mean_Ratio GDI5755_3d: DMSO_3d (Table S5, BCG_3375 Possible acid phosphatase) | Mean_Ratio GDI5755_3d: DMSO_3d (Table S5, BCG_3658 Probable conserved lipoprotein lpqF) | Mean_Ratio GDI5755_3d: DMSO_3d (Table S5, BCG_3866c Mycolyltransferase Ag85A) | Mean_Ratio GDI5755_3d: DMSO_3d (Table S5, BCG_3882c Trehalose-2-sulfate acyltransferase PapA2)
216 proteins: number of proteins accumulated (upregulated) (Day 2)
~ 37.9%: detected proteome downregulated (2‐day treatment, 2×MIC)
1.2: Mean_Ratio GDI5755_3d: DMSO_3d (Table S6, BCG_1037 Two-component sensor kinase MprB)
1.4: Mean_Ratio GDI5755_3d: DMSO_3d (Table S6, BCG_0390 Protein GrpE/HSP-70 cofactor) | Mean_Ratio GDI5755_3d: DMSO_3d (Table S6, BCG_0463c Uncharacterized protein) | Mean_Ratio GDI5755_3d: DMSO_3d (Table S6, BCG_0726c Possible conserved membrane protein mmpS5) | Mean_Ratio GDI5755_3d: DMSO_3d (Table S6, BCG_0774 Possible protease IV sppA (Endopeptidase IV)) | Mean_Ratio GDI5755_3d: DMSO_3d (Table S6, BCG_1028c Probable acetyl-/propionyl-coa carboxylase, accD2)
1.5: Mean_Ratio GDI5755_3d: DMSO_3d (Table S6, BCG_0130 decarboxylase) | Mean_Ratio GDI5755_3d: DMSO_3d (Table S6, BCG_0389 Chaperone protein DnaK) | Mean_Ratio GDI5755_3d: DMSO_3d (Table S6, BCG_0391 Chaperone protein DnaJ) | Mean_Ratio GDI5755_3d: DMSO_3d (Table S6, BCG_0422c Chaperone protein ClpB)
0.5: Mean_Ratio GDI5755_3d: DMSO_3d (Table S5, BCG_0495c Enoyl-CoA hydratase echA2)
3.9: Mean_Ratio GDI5755_3d: DMSO_3d (Table S6, BCG_0289c Heat stress-induced ribosome-binding protein A, acr2)
0.7: Mean_Ratio (GDI5755_3d vs DMSO_3d) (3 d) | Mean_Ratio GDI5755_3d: DMSO_3d (Table S5, BCG_0066 Fatty-acid-coa ligase fadD34) | Mean_Ratio GDI5755_3d: DMSO_3d (Table S5, BCG_0207 MCE-family protein mce1B) | Mean_Ratio GDI5755_3d: DMSO_3d (Table S5, BCG_0209 MCE-family protein mce1D) | Mean_Ratio GDI5755_3d: DMSO_3d (Table S5, BCG_0210 MCE-family lipoprotein lprK) | Mean_Ratio GDI5755_3d: DMSO_3d (Table S5, BCG_0211 MCE-family protein mce1F) | Mean_Ratio GDI5755_3d: DMSO_3d (Table S5, BCG_0442 Probable fatty-acid-CoA ligase fadD30) | Mean_Ratio GDI5755_3d: DMSO_3d (Table S5, BCG_0546c cmaA2) | Mean_Ratio GDI5755_3d: DMSO_3d (Table S5, BCG_0693c Methoxy mycolic acid synthase 2 mmaA2) | Mean_Ratio GDI5755_3d: DMSO_3d (Table S5, BCG_1048 UTP--glucose-1-phosphate uridylyltransferase) | Mean_Ratio GDI5755_3d: DMSO_3d (Table S5, BCG_1203c Probable enoyl-CoA hydratase echA11) | Mean_Ratio GDI5755_3d: DMSO_3d (Table S5, BCG_1579c Mycocerosic acid synthase-like polyketide synthase) | Mean_Ratio GDI5755_3d: DMSO_3d (Table S5, BCG_1619c Possible inv protein) | Mean_Ratio GDI5755_3d: DMSO_3d (Table S5, BCG_1922c Chorismate mutase) | Mean_Ratio GDI5755_3d: DMSO_3d (Table S5, BCG_1923c Mycolyltransferase Ag85B) | Mean_Ratio GDI5755_3d: DMSO_3d (Table S5, BCG_2260 Malonyl CoA-acyl carrier protein transacylase fabD) | Mean_Ratio GDI5755_3d: DMSO_3d (Table S5, BCG_2317 Cutinase) | Mean_Ratio GDI5755_3d: DMSO_3d (Table S5, BCG_2550 ERCC4 domain-containing protein) | Mean_Ratio GDI5755_3d: DMSO_3d (Table S5, BCG_2977 Methyltransferase FkbM domain-containing protein) | Mean_Ratio GDI5755_3d: DMSO_3d (Table S5, BCG_3731c Possible chalcone synthase pks11) | Mean_Ratio GDI5755_3d: DMSO_3d (Table S5, BCG_3772 Lipid II isoglutaminyl synthase subunit MurT)
188 proteins: number of proteins accumulated (upregulated) (Day 3)
1.47 fold: ClpB upregulation (3‐day treated cells)

— publication PMC12042115 (mLife, 2025)
